Measured values as given in patent US20080234262A1 (Wyeth, priority 2007, published 2008).

What follows are compounds tested against PI3K (Homo sapiens, UniProt P42336) (assay: Fluorescence polarization assay for PI3K). Conditions: PI3Kα; read-out: PI3Kα IC50.
Assay type: biochemical
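Wherever PI3Kα IC50 is given: PI3K kinase reaction on PIP2 with ATP, 30-60 min, product sensed by GST-GRP with red probe in fluorescence polarization (mP), controls without enzyme and at zero time.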

PI3K, sequence (P42336 whole entry): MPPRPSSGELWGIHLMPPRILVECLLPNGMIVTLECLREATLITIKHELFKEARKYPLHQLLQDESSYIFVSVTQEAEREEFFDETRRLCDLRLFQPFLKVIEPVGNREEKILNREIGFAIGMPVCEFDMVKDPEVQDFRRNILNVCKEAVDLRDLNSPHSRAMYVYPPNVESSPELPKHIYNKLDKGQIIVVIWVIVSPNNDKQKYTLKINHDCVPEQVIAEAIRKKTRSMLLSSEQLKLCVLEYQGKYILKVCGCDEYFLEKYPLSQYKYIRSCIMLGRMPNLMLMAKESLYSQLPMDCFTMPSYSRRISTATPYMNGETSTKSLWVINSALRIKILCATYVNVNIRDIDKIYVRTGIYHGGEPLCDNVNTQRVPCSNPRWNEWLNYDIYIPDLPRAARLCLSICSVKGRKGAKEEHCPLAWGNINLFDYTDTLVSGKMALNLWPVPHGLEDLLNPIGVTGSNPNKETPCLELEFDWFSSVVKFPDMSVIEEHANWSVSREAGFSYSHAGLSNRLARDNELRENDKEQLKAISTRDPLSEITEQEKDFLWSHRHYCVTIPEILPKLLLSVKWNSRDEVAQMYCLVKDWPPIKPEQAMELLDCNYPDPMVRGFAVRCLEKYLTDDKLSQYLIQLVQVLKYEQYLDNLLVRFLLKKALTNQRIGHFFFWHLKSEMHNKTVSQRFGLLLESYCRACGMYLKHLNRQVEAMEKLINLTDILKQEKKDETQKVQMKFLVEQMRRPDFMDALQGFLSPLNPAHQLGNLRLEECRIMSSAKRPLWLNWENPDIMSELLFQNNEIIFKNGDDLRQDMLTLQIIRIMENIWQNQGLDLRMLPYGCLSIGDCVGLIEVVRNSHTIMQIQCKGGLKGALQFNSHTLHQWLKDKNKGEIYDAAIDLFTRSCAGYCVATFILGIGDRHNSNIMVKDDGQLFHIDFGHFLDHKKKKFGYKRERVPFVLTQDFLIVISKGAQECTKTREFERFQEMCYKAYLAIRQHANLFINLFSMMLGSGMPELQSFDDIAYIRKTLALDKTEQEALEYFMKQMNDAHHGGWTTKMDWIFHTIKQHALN
PI3K, sequence (P27986 whole entry partner): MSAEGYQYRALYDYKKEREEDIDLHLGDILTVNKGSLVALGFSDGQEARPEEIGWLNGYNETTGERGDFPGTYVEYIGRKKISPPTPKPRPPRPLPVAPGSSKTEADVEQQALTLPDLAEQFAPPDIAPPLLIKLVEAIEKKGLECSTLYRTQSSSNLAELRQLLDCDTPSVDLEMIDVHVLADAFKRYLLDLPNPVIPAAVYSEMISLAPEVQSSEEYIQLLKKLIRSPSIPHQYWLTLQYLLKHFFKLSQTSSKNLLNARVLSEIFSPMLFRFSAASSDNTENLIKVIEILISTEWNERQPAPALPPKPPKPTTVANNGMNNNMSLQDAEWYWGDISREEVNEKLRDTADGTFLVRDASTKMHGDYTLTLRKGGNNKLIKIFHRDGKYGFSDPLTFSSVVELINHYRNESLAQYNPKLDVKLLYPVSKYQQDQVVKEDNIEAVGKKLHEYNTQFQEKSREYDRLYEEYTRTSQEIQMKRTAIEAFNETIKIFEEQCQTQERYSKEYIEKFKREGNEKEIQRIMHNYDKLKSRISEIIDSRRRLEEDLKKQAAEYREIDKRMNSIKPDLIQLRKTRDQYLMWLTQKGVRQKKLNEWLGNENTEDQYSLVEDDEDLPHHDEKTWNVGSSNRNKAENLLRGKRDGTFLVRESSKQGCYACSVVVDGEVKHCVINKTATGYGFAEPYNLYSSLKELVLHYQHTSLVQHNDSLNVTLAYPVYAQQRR

SMILES	IC50
c1cc2cc(-c3nc(N4CCOCC4)c4cn[nH]c4n3)ccc2[nH]1 [Compound 929, 6-(1H-indol-5-yl)-4-morpholin-4-yl-1H-pyrazolo[3,4-d]pyrimidine]	939 nM
Oc1cncc(-c2nc(N3CCOCC3)c3cnn(C4CCN(Cc5ccccc5)CC4)c3n2)c1 [Compound 930, 5-[1-(1-benzylpiperidin-4-yl)-4-morpholin-4-yl-1H-pyrazolo[3,4-d]pyrimidin-6-yl]pyridin-3-ol]	36 nM
COCOc1cncc(-c2nc(N3CCOCC3)c3cnn(C4CCN(Cc5ccccc5)CC4)c3n2)c1 [Compound 931, 1-(1-benzylpiperidin-4-yl)-6-[5-(methoxymethoxy)pyridin-3-yl]-4-morpholin-4-yl-1H-pyrazolo[3,4-d]pyrimidine]	2000 nM
Nc1ccc(-c2nc(N3CCOCC3)c3cnn(C4CCCCO4)c3n2)cc1 (stereo not shown) [Compound 934, 4-[4-morpholin-4-yl-1-(tetrahydro-2H-pyran-2-yl)-1H-pyrazolo[3,4-d]pyrimidin-6-yl]aniline]	4920 nM
CNC(=O)Nc1ccc(-c2nc(N3CCOCC3)c3cnn(C4CCCCO4)c3n2)cc1 (stereo not shown) [Compound 935, 1-methyl-3-{4-[4-morpholin-4-yl-1-(tetrahydro-2H-pyran-2-yl)-1H-pyrazolo[3,4-d]pyrimidin-6-yl]phenyl}urea]	118 nM
c1ccc(CN2CCC(n3ncc4c(N5CCOCC5)nc(-c5ccc6ncccc6c5)nc43)CC2)cc1 [Compound 937, 6-[1-(1-benzylpiperidin-4-yl)-4-morpholin-4-yl-1H-pyrazolo[3,4-d]pyrimidin-6-yl]quinoline]	466 nM
CN(C)CC=CC(=O)N1CCC(n2ncc3c(N4CCOCC4)nc(-c4ccc5[nH]ccc5c4)nc32)CC1 [Compound 957, 4-{4-[6-(1H-indol-5-yl)-4-morpholin-4-yl-1H-pyrazolo[3,4-d]pyrimidin-1-yl]piperidin-1-yl}-N,N-dimethyl-4-oxobut-2-en-1-amine]	480 nM
CN(C)CC(=O)Nc1ccc(-c2nc(N3CCOCC3)c3cn[nH]c3n2)cc1 [Compound 958, N2,N2-dimethyl-N-[4-(4-morpholin-4-yl-1H-pyrazolo[3,4-d]pyrimidin-6-yl)phenyl]glycinamide]	2270 nM
COC(=O)Nc1ccc(-c2nc(N3CCOCC3)c3cnn(C4CCN(Cc5ccc(F)cc5)CC4)c3n2)cc1 [Compound 959, methyl (4-{1-[1-(4-fluorobenzyl)piperidin-4-yl]-4-morpholin-4-yl-1Hpyrazolo[3,4-d]pyrimidin-6-yl}phenyl)carbamate]	750 nM
Oc1cccc(-c2nc(N3CCSCC3)c3cnn(-c4ccccc4)c3n2)c1 [Compound 963, 3-(1-phenyl-4-thiomorpholin-4-yl-1H-pyrazolo[3,4-d]pyrimidin-6-yl)phenol]	1620 nM
Oc1cccc(-c2nc(N3CCOCC3)c3c(F)nn(-c4ccccc4)c3n2)c1 [Compound 964, 3-(3-fluoro-4-morpholin-4-yl-1-phenyl-1H-pyrazolo[3,4-d]pyrimidin-6-yl)phenol]	70 nM
c1ccc(CN2CCC(n3ncc4c(N5CCOCC5)nc(-c5ccc6c(c5)OCO6)nc43)CC2)cc1 [Example 33]	1160 nM
c1cc2cc(-c3nc(N4CCOCC4)c4cnn(C5CCNCC5)c4n3)ccc2[nH]1 [Example 46]	1310 nM
CC(=O)Nc1ccc(-c2nc(N3CCOCC3)c3cnn(C4CCN(Cc5cccnc5)CC4)c3n2)cc1 [Example 158, N-(4-{4-morpholin-4-yl-1-[1-(pyridin-3-ylmethyl)piperidin-4-yl]-1H-pyrazolo[3,4-d]pyrimidin-6-yl}phenyl)acetamide]	404 nM
CC(=O)Nc1ccc(-c2nc(N3CCOCC3)c3cnn(C4CCN(C(=O)c5cccnc5)CC4)c3n2)cc1 [Example 221, N-(4-{4-morpholin-4-yl-1-[1-(pyridin-3-ylcarbonyl)piperidin-4-yl]-1H-pyrazolo[3,4-d]pyrimidin-6-yl}phenyl)acetamide]	878 nM
COC(=O)Nc1ccc(-c2nc(N3CCOCC3)c3cnn(C4CCN(C(=O)c5cccnc5)CC4)c3n2)cc1 [Example 223, methyl (4-{4-morpholin-4-yl-1-[1-(pyridin-3-ylcarbonyl)piperidin-4-yl]-1H-pyrazolo[3,4-d]pyrimidin-6-yl}phenyl)carbamate]	514 nM
CNC(=O)Nc1ccc(-c2nc(N3CCOCC3)c3cnn(C4CCN(C(=O)c5cccnc5)CC4)c3n2)cc1 [Example 226, 1-methyl-3-(4-{4-morpholin-4-yl-1-[1-(pyridin-3-ylcarbonyl)piperidin-4-yl]-1H-pyrazolo[3,4-d]pyrimidin-6-yl}phenyl)urea]	548 nM
Nc1ccc(-c2nc(N3CCOCC3)c3cn[nH]c3n2)cc1 [Example 285, 4-(4-morpholin-4-yl-1H-pyrazolo[3,4-d]pyrimidin-6-yl)aniline]	1610 nM

Other lines, results leading:

IC50	SMILES
4920 nM	CNC(=O)Nc1ccc(-c2nc(N3CCOCC3)c3cnn(C4CCCCO4)c3n2)cc1 (stereo not shown) [Example 235, 1-methyl-3-{4-[4-morpholin-4-yl-1-(tetrahydro-2H-pyran-2-yl)-1H-pyrazolo[3,4-d]pyrimidin-6-yl]phenyl}urea]
105 nM	CNC(=O)Nc1ccc(-c2nc(N3CCOCC3)c3cn[nH]c3n2)cc1 [Example 236, 1-methyl-3-[4-(4-morpholin-4-yl-1H-pyrazolo[3,4-d]pyrimidin-6-yl)phenyl]urea]
51 nM	CNC(=O)Nc1ccc(-c2nc(N3CCOCC3)c3cnn(-c4ccccc4)c3n2)cc1 [Example 297, 1-methyl-3-[4-(4-morpholin-4-yl-1-phenyl-1H-pyrazolo[3,4-d]pyrimidin-6-yl)phenyl]urea]
71 nM	CNC(=S)Nc1ccc(-c2nc(N3CCOCC3)c3cnn(C4CCN(Cc5ccccc5)CC4)c3n2)cc1 [Example 325, 1-{4-[1-(1-benzylpiperidin-4-yl)-4-morpholin-4-yl-1H-pyrazolo[3,4-d]pyrimidin-6-yl]phenyl}-3-methylthiourea]
198 nM	CNC(=O)Nc1ccc(-c2nc(N3CCOCC3)c3cnn(C4CCN(C(=O)c5ccc[n+]([O-])c5)CC4)c3n2)cc1 [Example 328, 1-methyl-3-[4-(4-morpholin-4-yl-1-{1-[(1-oxidopyridin-3-yl)carbonyl]piperidin-4-yl}-1H-pyrazolo[3,4-d]pyrimidin-6-yl)phenyl]urea]
14 nM	O=C(Nc1ccccc1)Nc1ccc(-c2nc(N3CCOCC3)c3cnn(C4CCN(C(=O)c5cccnc5)CC4)c3n2)cc1 [Example 343, 1-(4-{4-morpholin-4-yl-1-[1-(pyridin-3-ylcarbonyl)piperidin-4-yl]-1H-pyrazolo[3,4-d]pyrimidin-6-yl}phenyl)-3-phenylurea]
199 nM	CNC(=O)Nc1ccc(-c2nc(N3CCOCC3)c3cnn(C4CCN(Cc5ccccc5)CC4)c3n2)cc1F [Example 348, 1-{4-[1-(1-benzylpiperidin-4-yl)-4-morpholin-4-yl-1H-pyrazolo[3,4-d]pyrimidin-6-yl]-2-fluorophenyl}-3-methylurea]
80 nM	CNC(=O)Nc1ccc(-c2nc(N3CCOCC3)c3cnn(C4CCN(C(=O)c5ccccc5F)CC4)c3n2)cc1 [Example 354, 1-(4-{1-[1-(2-fluorobenzoyl)piperidin-4-yl]-4-morpholin-4-yl-1H-pyrazolo[3,4-d]pyrimidin-6-yl}phenyl)-3-methylurea]
424 nM	CCNC(=O)Nc1ccc(-c2nc(N3CCOCC3)c3cnn(C4CCN(Cc5cccnc5)CC4)c3n2)cc1F [Example 372, 1-ethyl-3-(2-fluoro-4-{4-morpholin-4-yl-1-[1-(pyridin-3-ylmethyl)piperidin-4-yl]-1H-pyrazolo[3,4-d]pyrimidin-6-yl}phenyl)urea]
160 nM	CNC(=O)Nc1ccc(-c2nc(N3CCOCC3)c3cnn(C4CCN(C(=O)c5ccncc5)CC4)c3n2)cc1 [Example 417, 1-{4-[1-(1-isonicotinoylpiperidin-4-yl)-4-morpholin-4-yl-1H-pyrazolo[3,4-d]pyrimidin-6-yl]phenyl}-3-methylurea]
2500 nM	COC(=O)Nc1ccc(-c2nc(N3CCOCC3)c3cnn(C4CCN(C(=O)c5cnccc5C)CC4)c3n2)cc1 [Example 440, methyl [4-(1-{1-[(4-methylpyridin-3-yl)carbonyl]piperidin-4-yl}-4-morpholin-4-yl-1H-pyrazolo[3,4-d]pyrimidin-6-yl)phenyl]carbamate]
887 nM	CNC(=O)Nc1ccc(-c2nc(N3CCOCC3)c3cnn(C4CCN(C(=O)c5cccnc5)CC4)c3n2)c(F)c1 [Example 461, 1-(3-fluoro-4-{4-morpholin-4-yl-1-[1-(pyridin-3-ylcarbonyl)piperidin-4-yl]-1H-pyrazolo[3,4-d]pyrimidin-6-yl}phenyl)-3-methylurea]
1540 nM	CNC(=O)Nc1cc(F)c(-c2nc(N3CCOCC3)c3cnn(C4CCN(C(=O)c5cccnc5)CC4)c3n2)cc1F [Example 465, 1-(2,5-difluoro-4-{4-morpholin-4-yl-1-[1-(pyridin-3-ylcarbonyl)piperidin-4-yl]-1H-pyrazolo[3,4-d]pyrimidin-6-yl}phenyl)-3-methylurea]

The compounds below were run on breast line MDA468 (assay: In vitro cell culture growth assay (MTS), MDA468). Conditions: Homo sapiens, 72 h, MDA468 cells, three days after drug treatment.
Assay type: cell-based, human
Protocol: Human tumor cell lines used include prostate lines LNCap and PC3MM2, breast lines MDA468, MCF7, renal line HTB44 (A498), colon line HCT116, and ovarian line OVCAR3. Cells were plated in 96-well culture plates. One day following plating, the inhibitors were added to cells. Three days after drug treatment, viable cell densities were determined by metabolic conversion (by viable cells) of the dye MTS, a well established cell proliferation assay. The assays were performed using an assay kit purchased from Promega Corp. (Madison, Wis.) following the protocol supplied with the kit. The MTS assay results were read in a 96-well plate reader by measuring absorbance at 490 nm. The effect of each treatment was calculated as percent of control growth relative to the vehicle-treated cells grown in the same culture plate.

SMILES	IC50
CN(C)C(=O)Nc1ccc(-c2nc(N3CCOCC3)c3cnn(C4CCN(Cc5ccccc5)CC4)c3n2)cc1 [Compound 205]	8000 nM
CN(C)CCNC(=O)Nc1ccc(-c2nc(N3CCOCC3)c3cnn(C4CCN(Cc5ccccc5)CC4)c3n2)cc1 [Compound 268, 1-{4-[1-(1-benzylpiperidin-4-yl)-4-morpholin-4-yl-1H-pyrazolo[3,4-d]pyrimidin-6-yl]phenyl}-3-[2-(dimethylamino)ethyl]urea]	600 nM
CN1CCC(NC(=O)Nc2ccc(-c3nc(N4CCOCC4)c4cnn(C5CCN(Cc6ccccc6)CC5)c4n3)cc2)CC1 [Compound 272]	1200 nM
